# Tested on: markers of innate activation
# Assay: in vivo activity, markers of innate activation after IV injection
# Details: Rhesus; 24-72 hours after IV injection
# Source text: Based on these findings in mice we explored the potential for the use of polyIC-LC/αCD40 combination vaccination in non-human primates (NHP) in order to validate the clinical efficacy. Human anti-human CD40 (Kirin Pharmaceuticals) having the variable heavy and light sequences in the Sequence Listing were produced in cell culture. CD40 binding activity and agonistic activity was confirmed against both human and Rhesus Macaque PBMCs. In vivo activity in Rhesus was also confirmed by examining markers of innate activation 24-72 hours after IV antibody injection. PolyIC-LC was obtained from Oncovir Inc. and its activity was confirmed in vivo similar to the αCD40.
substance,measurement,value
PolyIC-LC,In vivo activity (markers of innate activation),confirmed
